From US8551984B2, “Aminopyrimidines as SYK inhibitors” (Merck Sharp & Dohme Corp., priority 2009, dated 2013)

Molecular target: recombinant human SYK (GST-hSYK fusion protein) (Homo sapiens, UniProt P43405)
Assay: biochemical
[1] = rhSYK Activity (IC50), recombinant human GST-SYK 5 pM, ATP 25 μM, biotinylated substrate peptide 250 nM, HTRF, 10-dose titration

Excerpt: Homogeneous Time-Resolved Fluorescence (HTRF) Assay for the Recombinant Human SYK Enzyme:

## COC(=O)c1cccc(N2CCC(O)(c3ncc(-c4cc(C)cc(Nc5nccc(C(F)(F)F)n5)c4)s3)C2)c1 (stereo not drawn) [54B-35]
rhSYK Activity, Table 54B
  IC50: 100 to 1000 nM

## Cc1cc(Nc2nccc(C(F)(F)F)n2)cc(-c2cnc(C3(O)CCN(C(=O)CCC#N)CC3)s2)c1 [Example 54A-23]
RHSYK Activity, Table 54A
  IC50: < 100 nM

## Cc1cc(Nc2nccc(OCc3cccc4ccnn34)n2)cc(-c2cnc(C3(O)CCC3)s2)c1 [Example 108A-7]
rhSYK Activity, Table 108A
  IC50: 100 to 1000 nM

## COC(=O)C1CCC(O)(c2ncc(-c3cc(Nc4nccc(C(F)(F)F)n4)cc(C4CC4)c3)s2)CC1(C)C (stereo not drawn) [Example 33A-61]
rhSYK Activity, Table 33-A
  IC50: < 100 nM

## Cc1cc(Nc2nccc(C(F)(F)F)n2)cc(-c2cnc(C(C)(O)c3ccc(C(=O)O)cn3)s2)c1 (stereo not drawn) [Example 150, 6-{1-Hydroxy-1-[5-(3-methyl-5-{[4-(trifluoromethyl)pyrimidin-2-yl]amino}phenyl)-1,3-thiazol-2-yl]ethyl}pyridine-3-carboxylic acid]
[1]
  IC50: < 100 nM

## COC(=O)c1ccc(C(C)(C)c2ncc(-c3cc(C)cc(Nc4nccc(C(F)(F)F)n4)c3)s2)cc1 [Example 113D-9]
rhSYK Activity, Table 113D, upper part
  IC50: 100 to 1000 nM

## Cc1cc(Nc2nccc(C)n2)cc(-c2cnc(C3(O)CCC(CC(=O)O)CC3)s2)c1 (stereo not drawn) [Example 33A-32]
rhSYK Activity, Table 33-A
  IC50: < 100 nM

## C=C(F)CNCc1ncc(-c2cc(C)cc(Nc3nccc(C(F)(F)F)n3)c2)s1 [Example 88A-8]
[1]
  IC50: < 100 nM

## Cc1cc(Nc2nccc(C(F)(F)F)n2)cc(-c2cnc(C(=O)O)s2)c1 [Example 86, 5-(3-methyl-5-{[4-(trifluoromethyl)pyrimidin-2-yl]amino}phenyl)-1,3-thiazole-2-carboxylic acid]
[1]
  IC50: < 100 nM

## Cc1cc(Nc2nccc(C(F)(F)F)n2)cc(-c2cnc(-c3cnn(C[C@@H](O)CO)c3)s2)c1 [Example 115-4]
rhSYK Activity, Table 115
  IC50: < 100 nM

## Cc1cc(Nc2nccc(C(F)F)n2)cc(-c2cnc(C3(O)CCC(C(=O)O)C(C)C3)s2)c1 (stereo not drawn) [116A-18]
rhSYK Activity, Table 116A
  IC50: < 100 nM

## Cc1cc(Nc2nccc(C3CC3)n2)cc(-c2cnc(C(C)(C)S(N)(=O)=O)s2)c1 [74A-13]
rhSYK Activity, Table 74A
  IC50: < 100 nM

## O=C1OCCN1Cc1ncc(-c2cccc(Nc3nccc(C(F)(F)F)n3)c2)s1 [Example 21-10]
rhSYK Activity, Table 21
  IC50: < 100 nM

## Cc1cc(Nc2nccc(C(F)(F)F)n2)cc(-c2cnc(C3(O)CCCN(C(=O)CC(C)(C)O)CC3)s2)c1 (stereo not drawn) [Example 54D-44]
rhSYK Activity, Table 54D
  IC50: < 100 nM

## Cc1cc(Nc2nccc(C(F)(F)F)n2)cc(-c2cnc(C3(O)CC(C(=O)O)N(C(N)=O)C3)s2)c1 (stereo not drawn) [54B-36]
rhSYK Activity, Table 54B
  IC50: < 100 nM

## Cc1cc(Nc2nccc(C(F)(F)F)n2)cc(-c2cnc(C(=O)NCC3COCCO3)s2)c1 (stereo not drawn) [Example 87A-20]
[1]
  IC50: < 100 nM

## Cc1cc(Nc2nccc(C3CCCC3)n2)cc(-c2cnc(C3(O)CCC3)s2)c1 [Example 107-1]
[1]
  IC50: < 100 nM

## Cc1cc(Nc2nccc(C(F)(F)F)n2)cc(-c2cnc(C3(O)CCC(NC(=O)CCC(N)=O)CC3)s2)c1 (stereo not drawn) [Example 54E-8]
rhSYK Activity, Table 54E
  IC50: < 100 nM

## Cc1cc(Nc2nccc(C(F)(F)F)n2)cc(-c2cnc(CC(C)(C)C(=O)N(C)C)s2)c1 [Example 79-11]
[1]
  IC50: < 100 nM

## CCOC(=O)C1CC(C)C(O)(c2ncc(-c3cc(C)cc(Nc4nccc(C)n4)c3)s2)CC1C (stereo not drawn) [Example 113B-9]
rhSYK Activity, Table 113B
  IC50: < 100 nM

## CCOC(=O)C1CCC(O)(c2ncc(-c3cc(C)cc(Nc4nccc(CC)n4)c3)s2)CC1C (stereo not drawn) [Example 113A-31]
rhSYK Activity, Table 113A
  IC50: < 100 nM

## Cc1cc(Nc2nccc(C)n2)cc(-c2cnc(C3(O)CCC(C(=O)O)C(C)C3)s2)c1 (stereo not drawn) [Example 113A-4]
rhSYK Activity, Table 113A
  IC50: < 100 nM

## Cc1cc(Nc2nccc(C(F)(F)F)n2)cc(-c2cnc(C3(NC(=O)NC(N)=O)CCNC(=O)CC3)s2)c1 (stereo not drawn) [65-6]
rhSYK Activity, Table 65
  IC50: < 100 nM

## NC(=O)[C@H]1CC[C@H](c2ncc(-c3cccc(Nc4nccc(C(F)(F)F)n4)c3)s2)CC1 [23-1]
hSYK Activity, table of Example 23-1
  IC50: < 100 nM

## Cc1cc(Nc2nccc(C(F)(F)F)n2)cc(-c2cnc([C@]3(O)CC[C@H](CC(=O)O)CC3)s2)c1 [Example 33A-16]
rhSYK Activity, Table 33-A
  IC50: < 100 nM

## Cc1cc(Nc2nccc(C(F)(F)F)n2)cc(-c2cnc(C(O)(c3ccc(/C=C/C(=O)O)cc3)C3CC3)s2)c1 (stereo not drawn) [Example 33D-24]
rhSYK Activity, Table 33D
  IC50: < 100 nM

## COc1nc(Nc2cc(C)cc(-c3cnc(C4(O)CCC(C(=O)OC(C)(C)C)CC4)s3)c2)ncc1F (stereo not drawn) [116A-11]
rhSYK Activity, Table 116A
  IC50: 100 to 1000 nM

## Cc1cc(Nc2ncc(F)c(C)n2)cc(-c2cnc(C3(O)CCC(=O)CC3)s2)c1 [8A-8]
rhSYK Activity, Table 8A
  IC50: < 100 nM

## Cc1cc(Nc2ncccn2)cc(-c2cnc(C3(NC(=O)NC(N)=O)CCC3)s2)c1 [65-3]
rhSYK Activity, Table 65
  IC50: < 100 nM

## Cc1cc(Nc2nccc(C(F)(F)F)n2)cc(-c2cnc(C3CCCCNC3=O)s2)c1 (stereo not drawn) [Example 144, 3-[5-(3-methyl-5-{[4-(trifluoromethyl)pyrimidin-2-yl]amino}phenyl)-1,3-thiazol-2-yl]azepan-2-one]
[1]
  IC50: < 100 nM

## CCOC(=O)C1CC(C)C(O)(c2ncc(-c3cc(C)cc(Nc4nccc(C(F)(F)F)n4)c3)s2)CC1C (stereo not drawn) [Example 113B-18]
rhSYK Activity, Table 113B
  IC50: < 100 nM

## Cc1cc(Nc2nccc(C(F)(F)F)n2)cc(-c2cnc(C3(O)CCN(C(=O)CC4CCCO4)CC3)s2)c1 (stereo not drawn) [Example 54A-42]
RHSYK Activity, Table 54A
  IC50: < 100 nM

## Cc1cc(Nc2nccc(C(F)(F)F)n2)cc(-c2cnc(C3(O)CCC(NC(=O)CCn4cncn4)CC3)s2)c1 (stereo not drawn) [Example 54E-27]
rhSYK Activity, Table 54E
  IC50: < 100 nM

## Cc1cc(Nc2nccc(C(F)(F)F)n2)cc(-c2cnc(C3(O)CCCN(C(=O)Cc4nnn[nH]4)CC3)s2)c1 (single isomer, unassigned) [Example 54D-59]
rhSYK Activity, Table 54D
  IC50: < 100 nM

## CCOC(=O)CC(=O)N1CCCC(O)(c2ncc(-c3cc(C)cc(Nc4nccc(C(F)(F)F)n4)c3)s2)CC1 (single isomer, unassigned) [Example 54D-75]
rhSYK Activity, Table 54D
  IC50: < 100 nM

## Cc1cc(Nc2ncc(F)c(C)n2)cc(-c2cnc(C3(NS(N)(=O)=O)COC3)s2)c1 [Example 63-1]
rhSYK Activity, Table 63
  IC50: < 100 nM

## Cc1cc(Nc2nccc(C(F)(F)F)n2)cc(-c2cnc(-c3cnn(C4CCOCC4)c3)s2)c1 [Example 115-1]
rhSYK Activity, Table 115
  IC50: < 100 nM

## Cc1cc(Nc2nccc(C(F)(F)F)n2)cc(-c2cnc(C3(O)CC(C)C(C(=O)OC(C)C)C(C)C3)s2)c1 (stereo not drawn) [Example 113B-26]
rhSYK Activity, Table 113B
  IC50: 1000 to 10000 nM

## Cc1cc(Nc2nccc(OCCO)n2)cc(-c2cnc(C3(O)CCC(C(=O)O)C(C)(C)C3)s2)c1 (stereo not drawn) [Example 159, 4-hydroxy-4-[5-(3-{[4-(2-hydroxyethoxy)pyrimidin-2-yl]amino}-5-methylphenyl)-1,3-thiazol-2-yl]-2,2-dimethylcyclohexanecarboxylic acid]
[1]
  IC50: < 100 nM

## Cc1cc(Nc2nccc(OC(C)C)n2)cc(-c2cnc([C@]3(O)CC[C@@H](C(=O)O)[C@@H](C)C3)s2)c1 [Example 113A-35]
rhSYK Activity, Table 113A
  IC50: < 100 nM

## Cc1cc(Nc2nccc(OC3COC3)n2)cc(-c2cnc(C3(O)CCC3)s2)c1 [Example 94, 1-[5-(3-methyl-5-{[4-(oxetan-3-yloxy)pyrimidin-2-yl]amino}phenyl)-1,3-thiazol-2-yl]cyclobutanol]
[1]
  IC50: < 100 nM

## CO/C=C/c1ncc(-c2cc(C)cc(Nc3nccc(C(F)(F)F)n3)c2)s1 [153(A), N-(3-{2-[(E)-2-Methoxyethenyl]-1,3-thiazol-5-yl}-5-methylphenyl)-4-(trifluoromethyl)pyrimidin-2-amine]
[1]
  IC50: < 100 nM

## Cc1cc(Nc2nccc(OC3CCCCC3)n2)cc(-c2cnc(C3(O)CCC3)s2)c1 [Example 94A-32]
[1]
  IC50: 100 to 1000 nM

## Cc1cc(Nc2nccc(C3CC3)n2)cc(-c2cnc(C3(O)CCC(C(=O)O)C(C)(C)C3)s2)c1 (stereo not drawn) [Example 33A-71]
rhSYK Activity, Table 33-A
  IC50: < 100 nM

## CNCCOc1ccnc(Nc2cc(C)cc(-c3cnc(C4(O)CCC4)s3)c2)n1 [Example 94A-23]
[1]
  IC50: 100 to 1000 nM
